Where two headings read alike, the source gives them in different places. Some results are limits rather than exact numbers.

Test [1] addresses BRD4 (BD1+BD2) bromodomain (Homo sapiens (Human), UniProt O60885). In words: BRD4 binding inhibition (AlphaScreen, GST-BRD4 vs tetraacetylated histone H4 peptide). Put shortly:
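GST-BRD4 (BD1+BD2) and biotinylated tetraacetyl-histone H4 peptide, each at 100 nM in HEPES pH 7.4 buffer with BSA and DTT, were combined with compound. Glutathione acceptor and streptavidin donor beads were added, then incubated 30 min at room temperature in the dark. Read-out was AlphaScreen signal.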

In test [2] the test system is acute myelogenous leukemia cells (MV-4-11 cells). As to the kind of experiment: Cytotoxicity to acute myelogenous leukemia cells (MV-4-11 cells), CCK-8. Particulars: Homo sapiens, MV4-11, 72 h.
Setting [3] is: GST-BRD4 (BD1+BD2) / biotinylated acetyl-histone H4 (Lys5,8,12,16) peptide, read-out: IC50, BRD4 binding inhibition.
Where [4] appears, read: GST-BRD4 (BD1+BD2) vs biotinylated acetyl-histone H4 peptide, AlphaScreen, read-out: BRD4 IC50.
[5] abbreviates: read-out: MV-4-11 Cytotoxicity IC50.
Setting [6] is: read-out: IC50, cytotoxicity against acute myelogenous leukemia cells.

`Cc1nnc2c(NCCCCNC(=O)C(C)(C)C)nc3cc(-c4nc5ccccc5n4C)ccc3n12` [Example 230, 2,2-dimethyl-N-{4-[1-methyl-7-(1-methyl-1H-benzoimidazole-2-yl)-[1,2,4]triazolo[4,3-a]quinoxaline-4-ylamino]-butyl}-propionamide]: the IC50 in test [1] (setting [3]) is at most 0.05 µM; in test [1] (setting [4]), 0.013 µM; in test [2] (setting [5]), 0.58 µM.
Turning to `CCC(F)(F)C(=O)NCCCCNc1nc2cc(-c3nc4ccccc4n3C)ccc2n2c(C)nnc12` [Example 233, 2,2-difluoro-N-{4-[1-methyl-7-(1-methyl-1H-benzoimidazole-2-yl)-[1,2,4]triazolo[4,3-a]quinoxaline-4-ylamino]-butyl}-butyramide], the IC50 in test [1] (setting [3]) was at most 0.01 µM; in test [1] (setting [4]), 0.002 µM; in test [2] (setting [6]) it was at most 0.2 µM; in test [2] (setting [5]) it was 0.071 µM.
For `Cc1nnc2c(NCCCCNC(=O)[C@@H](O)C(C)C)nc3cc(-c4nc5ccccc5n4C)ccc3n12` [Example 234, 2-(S)-hydroxy-3-methyl-N-{4-[1-methyl-7-(1-methyl-1H-benzoimidazole-2-yl)-[1,2,4]triazolo[4,3-a]quinoxaline-4-ylamino]-butyl}-butyramide], in that order: at most 0.01 µM, 0.006 µM, at most 0.2 µM and 0.047 µM.
Take `Cc1nnc2c(NCCCCNC(=O)[C@H](O)C(C)C)nc3cc(-c4nc5ccccc5n4C)ccc3n12` [Example 235, 2-(R)-hydroxy-3-methyl-N-{4-[1-methyl-7-(1-methyl-1H-benzimidazole-2-yl)-[1,2,4]triazolo[4,3-a]quinoxaline-4-ylamino]-butyl}-butyramide]: the figures for the IC50 in test [1] (setting [3]), in test [1] (setting [4]) and in test [2] (setting [5]) were at most 0.05 µM, 0.011 µM and 0.39 µM, respectively.
On to `Cc1nnc2c(NCCCCNC(=O)CCC(C)C)nc3cc(-c4nc5ccccc5n4C)ccc3n12` [Example 236, 4-methyl-pentanoic acid-{4-[1-methyl-7-(1-methyl-1H-benzoimidazole-2-yl)-[1,2,4]triazolo[4,3-a]quinoxaline-4-ylamino]-butyl}-amide], for which the IC50 in test [1] (setting [3]) was at most 0.01 µM; in test [1] (setting [4]), 0.002 µM; in test [2] (setting [6]), at most 0.2 µM; in test [2] (setting [5]), 0.087 µM.
Turning to `COc1ccccc1C(=O)NCCCCNc1nc2cc(-c3nc4ccccc4n3C)ccc2n2c(C)nnc12` [Example 237, 2-methoxy-N-{4-[1-methyl-7-(1-methyl-1H-benzoimidazole-2-yl)-[1,2,4]triazolo[4,3-a]quinoxaline-4-ylamino]-butyl}-benzamide], the figures for the IC50 in test [1] (setting [3]), in test [1] (setting [4]) and in test [2] (setting [5]) were at most 0.01 µM, 0.0006 µM and 0.5 µM, respectively.
For `Cc1nnc2c(NCCCCNC(=O)NC(C)C)nc3cc(-c4nc5ccccc5n4C)ccc3n12` [Example 238, 1-isopropyl-3-{4-[1-methyl-7-(1-methyl-1H-benzoimidazole-2-yl)-[1,2,4]triazolo[4,3-a]quinoxaline-4-ylamino]-butyl}-urea] the same measures were at most 0.05 µM, 0.015 µM and 0.65 µM.
For `Cc1nnc2c(NCCCCNC(=O)NC3CCCCC3)nc3cc(-c4nc5ccccc5n4C)ccc3n12` [Example 239, 1-cyclohexyl-3-{4-[1-methyl-7-(1-methyl-1H-benzoimidazole-2-yl)-[1,2,4]triazolo[4,3-a]quinoxaline-4-ylamino]-butyl}-urea], in that order: at most 0.05 µM, 0.018 µM and 0.66 µM.
Turning to `CCCn1c(-c2ccc3c(c2)nc(NCCCCNC(=O)CC(C)C)c2nnc(C)n23)nc2ccccc21` [Example 240, 3-methyl-N-{4-[1-methyl-7-(1-propyl-1H-benzoimidazole-2-yl)-[1,2,4]triazolo[4,3-a]quinoxaline-4-ylamino]-butyl}-butyramide], the IC50 in test [1] (setting [3]) was at most 0.01 µM; in test [1] (setting [4]), 0.0009 µM; in test [2] (setting [6]) it was at most 0.2 µM; in test [2] (setting [5]) it was 0.158 µM.
As to `Cc1nnc2c(NCCCCNC(=O)CC(C)C)nc3cc([N+](=O)[O-])ccc3n12` [Example 244], the IC50 in test [1] (setting [4]) was determined as 0.089 µM; in test [2] (setting [5]), 0.26 µM.

Usually IC50 stands for the point on the concentration scale where inhibition reaches its midpoint.
